These results are taken from patent publication US11714094B2, “Composition comprising prostacyclin andor analogues thereof for treatment of acute critically ill patients” (priority 2015, dated 2023).

Like-named read-outs stand apart in the source and are kept apart here.

Data set [1] deals with endothelial derived biomarkers. In words: Healthy volunteer study, 2 hours i.v. Ilomedin infusion: plasma endothelial derived biomarkers by ELISA. The data set is classed as in vivo, human. The settings on record: 1 ng/kg/min i.v. for 2 hours. The procedure: Blood samples for endothelial function were collected at the following time-points: Before the infusion (0 h), after 30 min infusion (30 min), immediately after ceasing the infusion (2 h) and 2 hours after the end of iloprost infusion. Endothelial function was evaluated by measuring plasma levels of endothelial derived biomarkers by commercially available ELISA kits. Biomarkers indicating: Endothelial glycocalyx damage (syndecan-1), endothelial cell damage (thrombomodulin) and endothelial cell anticoagulation (protein C) were investigated. Furthermore, we measured plasma concentration of prostacyclin (FIG. 3).

A short description of data set [2]: Randomized placebo controlled trial of 24 hours i.v. Ilomedin in AMI PCI patients: hemodynamics and bleeding events. The data set is classed as in vivo, human. Conditions: 0.5 ng/kg/min i.v. for 24 hours, during or after infusion. The protocol:
(§1) Ilomedin® (iloprost, prostacyclin analog) infusion at a dose of 0.5 ng/kg/min compared to placebo in 17 patients with acute myocardial infarction (AMI) undergoing percutanuous coronary intervention (PCI) with stent implantation [Holmvang et al 2012]. Patients randomized to 24 hours active (n=9) or placebo (n=8) therapy were evaluated for hemodynamics, bleeding events and for functional whole blood hemostasis (Multiplate, TEG) and endothelial function in blood sampled before iloprost infusion (baseline), during infusion (1 h, 6 h and 24 h) and 24 hours after ceasing iloprost infusion (48 h). Bleeding was evaluated by GUSTO criteria (severe, moderate, mild, none) and hemostasis was evaluated by Multiplate and TEG according to the manufactures recommendations. Endothelial function was evaluated by measuring plasma levels of endothelial derived biomarkers by commercially available ELISA kits. Biomarkers indicating: Endothelial glycocalyx damage (syndecan-1), endothelial cell damage (thrombomodulin), endothelial cell activation (sE-selectin, ICAM-1) and anticoagulation (protein C) were investigated.

The test system of data set [3] is functional whole blood hemostasis. In words: Randomized placebo controlled trial of 24 hours i.v. Ilomedin in AMI PCI patients: Multiplate, TEG. Conditions: 0.5 ng/kg/min i.v. for 24 hours, during or after infusion. The class given is in vivo, human.
Procedure: The inventors conducted a randomized placebo controlled double blind clinical trial investigating safety and efficacy of 24 hours i.v. Ilomedin® (iloprost, prostacyclin analog) infusion at a dose of 0.5 ng/kg/min compared to placebo in 17 patients with acute myocardial infarction (AMI) undergoing percutanuous coronary intervention (PCI) with stent implantation [Holmvang et al 2012]. Patients randomized to 24 hours active (n=9) or placebo (n=8) therapy were evaluated for hemodynamics, bleeding events and for functional whole blood hemostasis (Multiplate, TEG) and endothelial function in blood sampled before iloprost infusion (baseline), during infusion (1 h, 6 h and 24 h) and 24 hours after ceasing iloprost infusion (48 h).
The subject of data set [4] is endothelial derived biomarkers. In words: Randomized placebo controlled trial of 24 hours i.v. Ilomedin in AMI PCI patients: plasma endothelial derived biomarkers by ELISA. Conditions: 0.5 ng/kg/min i.v. for 24 hours, baseline to 48 h. The data set is classed as in vivo, human. The procedure:
as §1

For data set [5] the following is noted: Whipple surgery patients. The protocol: The inventors conducted a randomized placebo controlled double blind clinical trial investigating safety and efficacy of intra- and post-operative i.v. Ilomedin® (iloprost, prostacyclin analog) infusion at a dose of 1 ng/kg/min compared to placebo in 16 patients undergoing whipple surgery at Rigshospitalet, a tertiary level teaching University hospital in Copenhagen, Denmark. The inclusion criteria were adults (age […]) undergoing whipple surgery based on surgical indication due to cancer/dysplasia, familial adenomatous polyposis or inflammation/pancreatitis.
Data on demography, co-morbidities, surgical time and 28-day mortality were assessed. Hemodynamics were measured continuously (heart rate (HR), systolic, diastolic and mean arterial pressure (SBT, DBT, MAP)) or at baseline, end of surgery and 6 h and 24 h post-operative (systemic vascular resistance (SVR), stroke volume (SV), central venous pressure (CVP)). The volume and number of units of red blood cells (RBC), plasma and platelet concentrates administered were recorded at the end of surgery, 6 h and 24 h post-operative. Bleeding volume was assessed intra-operative and 6 h and 24 h post-operative. The volume of crystalloids and colloids (only albumin was allowed) was, together with urine output, recorded intra-operative and 6 h and 24 h post-operative.
Blood samples for evaluation of functional whole blood hemostasis (TEG) and endothelial function were collected pre-commencing infusion with study drug (baseline), at the end of surgery (post-op) and 6 h after surgery just before ceasing study drug infusion (6 h). Blood samples for routine biochemistry (hemoglobin, creatinine and lactate) were collected at baseline, post-op and 6 h and 24 h post-operative.

For data set [6], the system named is functional whole blood hemostasis. The experiment in a line: Randomized placebo controlled trial of i.v. Ilomedin in Whipple surgery patients: TEG. The class given is in vivo, human. The protocol:
(§2) TEG was performed according to the manufactures recommendations. Endothelial function was evaluated by measuring plasma levels of endothelial derived biomarkers by commercially available ELISA kits. Biomarkers indicating: Endothelial glycocalyx damage (syndecan-1), endothelial cell damage (thrombomodulin) and necrosis (nucleosomes) were investigated.

The test system of data set [7] is endothelial derived biomarkers. In words: Randomized placebo controlled trial of i.v. Ilomedin in Whipple surgery patients: plasma endothelial derived biomarkers by ELISA. The class given is in vivo, human. Conditions: 1 ng/kg/min i.v. The procedure: as §2
The nature of data set [8]: Retrospective study of critically ill ICU patients on CRRT with pre-filter Flolan or heparin. The class given is in vivo, human. Conditions: for 90-day mortality / 365-day mortality / platelet count during CRRT: agent given in the dialysis filter; for 30-day mortality: agent given in the dialysis filter (Flolan 5 ng/kg/min). The protocol: The inventors conducted a retrospective study of critically ill patients treated or not treated with prostacyclin infusion during their intensive care unit (ICU) stay [Windelov et al 2010]. Ninety-four critically ill patients admitted to the ICU for medical or surgical complications, underwent hemofiltration (continuous renal replacement therapy, CRRT) with or without concomitant Flolan® (epoprostenol sodium, prostacyclin analog) treatment. Flolan® was administered at a low dose (5 ng/kg/min) in the filters to prevent these from clotting and consequently, there was only a minor spill-over of Flolan® to the systemic circulation.

Data set [9] relates to clot formation and platelet aggregation. The experiment in a line: Functional whole blood hemostatic assays (TEG, Multiplate) under low-dose prostacyclin infusion. The data set is classed as in vivo, human. An excerpt: However, as for the vasodilatory effect, the antiaggretory effect is highly dose-dependent [Moncada et al 1976; O'Grady et al 1980]. […] The term “thrombelastography” or “TEG” refers to a commercially available viscoelastic whole blood hemostasis assay employing citrated or non-anticoagulated blood. The TEG analyzer uses a small whole blood sample in a rotating cup and a pin suspended in the blood by a torsion wire, which is monitored for motion. To speed up the clot formation, a standardized amount of an activator of coagulation (e.g. kaolin, tissue factor) may be added to the cup just before the pin is placed in the cup. The TEG assay is suitable for determining important parameters in the clotting activity (clot initiation time, clot build up dynamics), clot strength (maximum amplitude (MA)) and clot degradation (fibrinolysis). The TEG system's approach to monitoring patient hemostasis is based on the premise that the end result of the hemostatic process is the clot. The clot's physical properties determine whether the patient will have normal hemostasis, or will be at increased risk for hemorrhage or thrombosis. The term “Multiplate” refers to a commercially available impedance aggregometry based whole blood platelet function analyzer employing anti-coagulated blood. The Multiplate analyzer uses a small whole blood sample in a chamber with two pairs of platinum electrodes. Standardized platelet agonists are added to the blood in the chamber to investigate specific platelet activation/signaling pathways. The Multiplate assay is based on the attachment of platelets on two platinum electrodes, resulting in an increase of electrical resistance between the electrodes.

The nature of data set [10]: Healthy volunteer study, 2 hours i.v. Flolan infusion: hemodynamics. The data set is classed as in vivo, human. The settings on record: eight healthy male volunteers; 4 ng/kg/min i.v. for 2 hours; any time point. The protocol:
The study was conducted investigating the influence of 2 hours i.v. Flolan® (epoprostenol sodium, prostacyclin analog) infusion at a dose of 4 ng/kg/min in eight healthy male volunteers.

A further data set relates to whole blood hemostasis. The experiment in a line: Healthy volunteer study, 2 hours i.v. Flolan infusion: Multiplate and TEG. The class given is in vivo, human. Conditions: eight healthy male volunteers; 4 ng/kg/min i.v. for 2 hours. An excerpt: The term “thrombelastography” or “TEG” refers to a commercially available viscoelastic whole blood hemostasis assay employing citrated or non-anticoagulated blood. The TEG analyzer uses a small whole blood sample in a rotating cup and a pin suspended in the blood by a torsion wire, which is monitored for motion. To speed up the clot formation, a standardized amount of an activator of coagulation (e.g. kaolin, tissue factor) may be added to the cup just before the pin is placed in the cup. The TEG assay is suitable for determining important parameters in the clotting activity (clot initiation time, clot build up dynamics), clot strength (maximum amplitude (MA)) and clot degradation (fibrinolysis). The TEG system's approach to monitoring patient hemostasis is based on the premise that the end result of the hemostatic process is the clot. The clot's physical properties determine whether the patient will have normal hemostasis, or will be at increased risk for hemorrhage or thrombosis. The term “Multiplate” refers to a commercially available impedance aggregometry based whole blood platelet function analyzer employing anti-coagulated blood. The Multiplate analyzer uses a small whole blood sample in a chamber with two pairs of platinum electrodes. Standardized platelet agonists are added to the blood in the chamber to investigate specific platelet activation/signaling pathways. […]

Data set [11] concerns endothelial derived biomarkers. In words: Healthy volunteer study, 2 hours i.v. Flolan infusion: plasma endothelial derived biomarkers by ELISA. The data set is classed as in vivo, human. The settings on record: healthy volunteers, 4 ng/kg/min i.v. for 2 hours. The procedure: The study was conducted investigating the influence of 2 hours i.v. Flolan® (epoprostenol sodium, prostacyclin analog) infusion at a dose of 4 ng/kg/min in eight healthy male volunteers. Endothelial function was evaluated in the study e.g. by measuring plasma levels of endothelial derived biomarkers by commercially available ELISA kits. Biomarkers indicating: Endothelial glycocalyx damage (syndecan-1), endothelial cell damage (thrombomodulin) or necrosis (nucleosomes, HMGB1), endothelial cell activation (PAI-1) and endothelial cell anticoagulation (protein C, antithrombin) were investigated (FIG. 2).

For data set [12] the following is noted: cited from earlier work.
The mark [13] stands for this setting: healthy volunteers, during infusion.
Where [14] appears, read: healthy volunteers, 1-4 ng/kg/min infusion.

For `CC#CCC(C)[C@H](O)/C=C/[C@@H]1[C@H]2C/C(=C/CCCC(=O)O)C[C@H]2C[C@H]1O` (stereo partly drawn) [iloprost], in data set [1] (eight healthy male volunteers, continuing several hours after infusion), the “circulating level of thrombomodulin” value was “marked decrease”. Further, in data set [1] (setting [13]), the “circulating level of Syndecan-1” value is listed as “decreased” and the “circulating level of protein C” value is “decreased”. In addition, in data set [2], the “bleeding events vs placebo” value was “no differences” and the hemodynamics vs placebo result is on record as “no differences”. The “Multiplate or TEG vs placebo” value in data set [3] is on record as “no differences”. In addition, the sE-selectin result in [4] is on record as “decreased significantly”. For the same compound, in data set [5] (1 ng/kg/min i.v.), the “intra- and post-operative RBC received (median)” value is 0 mL; the lactate post-operatively entry was “remained unchanged”; the “post-operative hemoglobin (median)” value came out at 6.7 mmol/L; the “volume of RBC from arrival at the post-operative ward and 6 h post-operatively” value was determined as 0 mL. In data set [5] (1 ng/kg/min i.v. intra- and post-operative), the “28-day mortality vs placebo” value is recorded as “no differences”. Also, the “TEG maximum clot firmness intra-operatively” value in [6] (Whipple surgery patients, 1 ng/kg/min i.v.) is recorded as “remained stable”. Besides, in [7], the “nucleosome level, change intra- and postoperatively vs placebo” value is “increased significantly more intra- and postoperatively in placebo patients compared to iloprost patients”; the “syndecan-1 level vs placebo” value is “trend towards higher levels of syndecan-1 in placebo patients compared to iloprost patients”; the “thrombomodulin level, change intra- and postoperatively vs placebo” value is “increased significantly more intra- and postoperatively in placebo patients compared to iloprost patients”.
For the compound heparin, in data set [8], the 90-day mortality was 53%, the 365-day mortality is reported as 57%, the “platelet count during CRRT” value is “declined” and the 30-day mortality amounted to 39%.
`CCCCC[C@H](O)/C=C/[C@@H]1[C@H]2C/C(=C/CCCC(=O)O)O[C@H]2C[C@H]1O` [prostacyclin]: the “clot formation and platelet aggregation” value in [9] (acute critically ill patients (major abdominal surgery, PCI after AMI), 0.5-1 ng/kg/min infusion) is “neither influenced clot formation nor platelet aggregation”. In addition, the “hemostasis, bleeding or adverse events related to impaired hemostasis” value in data set [9] (acute critically ill patients, low-dose infusion 0.5-1 ng/kg/min) is on record as “does not compromise hemostasis or induce bleeding or adverse events related to impaired hemostasis”. In addition, in data set [9] (general conclusion, dose dependence), the platelet aggregation entry is recorded as “dose-dependently inhibits”. For the same compound, the “hemostasis, bleeding or adverse events related to impaired hemostasis” value in data set [9] (healthy volunteers and acute critically ill patients, low-dose infusion up to 4 ng/kg/min) is on record as “does not compromise hemostasis or induce bleeding or adverse events related to impaired hemostasis”. Also, the “clot formation and platelet aggregation” value in [9] (setting [14]) was “neither influenced clot formation nor platelet aggregation”. Moreover, the “anti-thrombotic effects (TEG, Multiplate)” value in data set [9] (low-dose infusion) is listed as “no measurable anti-thrombotic effects”. In data set [10], the “blood pressure vs baseline” value is recorded as “did not change” and the “heart rate vs baseline” value is given as “did not change”. In the data set on whole blood hemostasis, the “Multiplate and TEG values, baseline vs later” value is “no changes”. Besides, in data set [11], the “circulating level of PAI-1” value is recorded as “declined” and the “circulating level of antithrombin” value was “decreased”. The “circulating level of thrombomodulin” value in data set [11] (continuing several hours after infusion) is “marked decrease”. The “circulating level of protein C” value in [11] (hours after ceasing infusion) is on record as “decreased”. In addition, in data set [8], the 90-day mortality is 34%, the 365-day mortality was found to be 38%, the “platelet count during CRRT” value is given as “increased” and the 30-day mortality was found to be 21%. Further, in data set [6] (patients undergoing major abdominal surgery, intra- and post-operative infusion), the clot formation result was “improved”. In data set [12] (acute critically ill patients, doses from 5-10 ng/kg/min), the systolic blood pressure result is listed as “lowers systolic blood pressure dose-dependently”. Also, the blood pressure entry in data set [12] (setting [14]) was “did not influence”. Further, the diastolic blood pressure result in data set [12] (human volunteers, dose of 8 ng/kg/min) is listed as “reduced”. In addition, the “effect on systolic or diastolic blood pressure” value in data set [12] (human volunteers, doses less than 8 ng/kg/min) is “no significant effect”. Moreover, the “effect on systolic blood pressure” value in data set [12] (human volunteers, doses up to 16 ng/kg/min) is on record as “no effect”. Besides, in [12] (low-dose infusion up to 4 ng/kg/min, healthy volunteers and acute critically ill patients), the hemodynamic effects entry is listed as “negligible”. In data set [12] (patients with traumatic brain injury, AMI treated by PCI, septic shock or CABG surgery, 0.5-2 ng/kg/min infusion), the blood pressure result is “did not negatively influence”.
